From PubChem BioAssay (NCI)
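Each compound was tested at five concentrations against cells in 96-well plates for 48 hours. At the TGI there is no net growth.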

Key:
Assay in all cases: NCI tumour cell line growth inhibition, 48 h
HT29 colon = test system: HT29 colon
EKVX NSCLC = test system: EKVX NSCLC
ACHN renal = test system: ACHN renal
HL-60(TB) leukemia = test system: HL-60(TB) leukemia
786-0 renal = test system: 786-0 renal
M14 melanoma = test system: M14 melanoma
SK-OV-3 ovarian = test system: SK-OV-3 ovarian
SF-295 CNS = test system: SF-295 CNS
SK-MEL-2 melanoma = test system: SK-MEL-2 melanoma
RPMI-8226 leukemia = test system: RPMI-8226 leukemia
HCC-2998 colon = test system: HCC-2998 colon
CAKI-1 renal = test system: CAKI-1 renal
UACC-257 melanoma = test system: UACC-257 melanoma
UACC-62 melanoma = test system: UACC-62 melanoma
OVCAR-4 ovarian = test system: OVCAR-4 ovarian
U251 CNS = test system: U251 CNS
MALME-3M melanoma = test system: MALME-3M melanoma
MCF7 breast = test system: MCF7 breast
MDA-MB-231 breast = test system: MDA-MB-231 breast

Row | SMILES | TGI (HT29 colon) [µM] | TGI (EKVX NSCLC) [µM] | TGI (ACHN renal) [µM] | TGI (HL-60(TB) leukemia) [µM] | TGI (786-0 renal) [µM] | TGI (M14 melanoma) [µM] | TGI (SK-OV-3 ovarian) [µM] | TGI (SF-295 CNS) [µM] | TGI (SK-MEL-2 melanoma) [µM] | TGI (RPMI-8226 leukemia) [µM] | TGI (HCC-2998 colon) [µM] | TGI (CAKI-1 renal) [µM] | TGI (UACC-257 melanoma) [µM] | TGI (UACC-62 melanoma) [µM] | TGI (OVCAR-4 ovarian) [µM] | TGI (U251 CNS) [µM] | TGI (MALME-3M melanoma) [µM] | TGI (MCF7 breast) [µM] | TGI (MDA-MB-231 breast) [µM]
1 | Cc1nc(N)c(-c2ccccc2)s1 | > 100 | > 100 | > 100 | > 72.9 | > 100 | > 100 | > 100 | 92.4 | > 100 | > 72.1 | > 100 | > 100 | > 96.1 | > 100 | > 100 | > 76.4 | > 100 |  | 
2 | CCCCNC(=NCc1ccccc1)NC#N | > 100 | > 100 | > 100 | > 100 | > 100 | > 100 | > 100 | > 100 | > 100 | > 100 | > 100 | > 100 |  | > 100 | > 100 | > 100 | > 100 |  | 
3 | CCN(CC)CCC1(C2CCCCC2)CCC(=O)NC1=O (stereo not given) | > 100 | > 100 | > 100 |  | > 100 | > 100 | > 100 | > 100 | > 100 | > 100 | > 100 | > 100 | > 100 | > 100 | > 100 | > 100 | > 100 |  | 
4 | CC1(C)OCN(c2ccc(S(N)(=O)=O)cc2)Cn2c1nc1ccccc12 | > 100 | > 100 | > 100 | > 100 | > 100 | > 100 | > 100 | > 100 | > 100 | > 100 | > 100 |  | > 100 | > 100 | > 100 | > 100 | > 100 |  | 
5 | C/C(=N/NC(=O)C[n+]1ccccc1)C(CN(CC(C)C)CC(C)C)C(=O)Nc1ccc(C)cc1C (stereo not given) | > 100 | > 100 | > 100 | > 100 | > 100 | > 100 | > 100 |  | > 100 | > 100 | > 100 |  | > 100 | > 100 | > 100 |  | > 100 |  | 
6 | C[C@@]1(Cc2ccccc2)C(=O)N2[C@@H](CO)C(c3ccccc3)O[C@]2(C)c2ccccc21 (stereo not given in full) |  | > 100 | > 100 | > 100 | > 100 | > 100 | > 100 | > 100 | > 100 | > 100 |  | > 100 |  | > 100 | > 100 | > 100 |  |  | 
7 | Clc1ccc(CCc2ccncn2)c(Cl)c1 | > 100 | > 100 | > 100 | > 100 | > 100 | > 100 | > 100 | > 100 | > 100 | > 100 | > 100 | > 100 | > 100 | > 100 | > 100 | > 100 | > 100 |  | 
8 | COc1ccccc1-n1c(N)c2c(C)c(-c3ccccc3)[nH]c2nc1=S |  |  | > 100 | > 100 | > 100 | > 100 |  |  | > 100 | > 100 | > 100 | > 100 | > 100 | > 100 | > 100 | > 100 | > 100 |  | 
9 | CCOc1ccc(/C=C(\Cl)c2ccc(OC)cc2)cc1 | > 100 | > 100 | > 100 | > 100 | > 100 | > 100 | > 100 | > 100 |  | > 100 | > 100 |  | > 100 | > 100 | > 100 | > 100 | > 100 |  | 
10 | CC/C(=N/O)c1ccc2[nH]c3c(C)cc([N+](=O)[O-])c(C)c3c2c1 | > 100 | > 100 | > 100 | > 100 | > 100 | > 100 |  | > 100 | > 100 | > 100 | > 100 | > 100 | > 100 |  | > 100 |  | > 100 |  | 
11 | CC12C(=C(C#N)C(=N)N1c1ccc(Cl)c(Cl)c1)C=C(O)CC2SCCS(=O)(=O)O (stereo not given) | > 100 | > 100 | > 100 | > 100 | > 100 |  | > 100 | > 100 | > 100 | > 100 | > 100 | > 100 | > 100 | > 100 | > 100 | > 100 |  |  | 
12 | CC(C)N(C(=O)C12C3C4C1C1C2C3C41I)C(C)C (stereo not given) | > 100 | > 100 | > 100 | > 100 | > 100 | > 100 | > 100 | > 100 |  |  | > 100 | > 100 |  | > 100 | > 100 |  | > 100 |  | 
13 | C/C(=N\NC(=S)NC(CCC(=O)O)C(=O)O)c1cnccn1 (stereo not given) | > 100 | > 100 | > 100 | > 100 | > 100 | > 100 | > 100 | > 100 | > 100 | > 100 | > 100 |  | > 100 | > 100 | > 100 | > 100 | > 100 |  | 
14 | O=C(Cc1ccc([N+](=O)[O-])c([N+](=O)[O-])c1CC(=O)C(=O)Nc1cc(Cl)ccc1Cl)C(=O)Nc1cc(Cl)ccc1Cl | > 100 | > 100 | > 100 | > 100 | > 100 | > 100 | > 100 | > 100 | > 100 | > 100 | > 100 | > 100 | > 100 | > 100 | > 100 | 70.1 | > 100 |  | 
15 | CN(C)/C=N\c1nncc2[nH]cnc12 | > 100 | > 100 | > 100 |  | > 100 | > 100 | > 100 | > 100 | > 100 | > 100 | > 100 | > 100 | > 100 | > 100 | > 100 | > 100 | > 100 | > 100 | 
16 | O=C(N/N=C(/c1nc2ccc([N+](=O)[O-])cc2[nH]c1=O)C(O)c1ccc([N+](=O)[O-])cc1)c1ccncc1 (stereo not given) | > 100 | > 100 | > 100 | > 100 | > 100 | > 100 | > 100 | > 100 | > 100 | > 100 | > 100 | > 100 | > 100 | > 100 | > 100 | > 100 | > 100 |  | 
17 | COc1cc(OC)c2c(=O)c3c([N+](=O)[O-])cccc3n(C)c2c1 | > 100 | > 100 | > 100 | > 100 | > 100 | > 100 | > 100 | > 100 | > 100 | > 100 | > 100 | > 100 | > 100 | > 100 | > 100 | > 100 | > 100 |  | 
18 | CCc1[nH]c(=O)c2oc3cc4ccccc4cc3c2c1C(=O)O | > 10 | > 10 | > 10 | > 10 | > 10 | > 10 |  | > 10 | > 10 |  | > 10 |  | > 10 |  | > 10 |  | > 10 |  | > 10
19 | C#CCNC(=O)NCCCCC(NC(C)=O)C(=O)NCc1ccccc1 (stereo not given) | > 100 | > 100 | > 100 |  | > 100 | > 100 | > 100 | > 100 |  | > 100 | > 100 | > 100 | > 100 | > 100 | > 100 | > 100 | > 100 |  | 
20 | CCOC(=O)C(/C(=N\NC(=O)OC)C(=O)Nc1cc(OC)ccc1OC)c1cnc2ccccc2n1 (stereo not given) | > 100 | > 100 | > 100 | > 100 | > 100 | > 100 | > 100 | > 100 |  | > 100 | > 100 | > 100 | > 100 | > 100 | > 100 | > 100 | > 100 |  | 
21 | Cc1cccc(/C=N\NC(=S)N2CCCCC2)n1 | > 100 | > 100 | 0.863 | 0.265 | 20.8 | 0.406 | > 100 | 6.58 | > 100 | 0.502 | > 100 | 3.62 | 0.0589 | 3.81 |  | > 100 | > 100 |  | 
22 | Oc1cc(CN2CCOCCOCCOCCOCC2)c(O)cc1CN1CCOCCOCCOCCOCC1 | > 73.3 | > 100 | > 59.2 | 52.4 | 58.5 | 38.9 | > 100 | > 100 | > 93.4 | 63.8 | > 100 | 38.9 | > 100 | > 72.2 | 34 | > 56.8 |  |  | 
23 | COc1cc(C2C(C(=O)Nc3ccc([N+](=O)[O-])cc3)=C(C)NC(C)=C2C(=O)Nc2ccc([N+](=O)[O-])cc2)ccc1O | 38.1 | > 100 | > 67.2 | > 100 | > 100 | > 60.5 | 77.8 | 65.7 | 34.7 | 59.6 | 40.3 | > 86.6 | 54.6 | 42 | > 70.8 | 33.8 | 60 |  | 
24 | Cc1nc(-n2nc(-c3ccccc3)cc2-c2ccccc2)sc1C(=O)/C=C/c1ccc(Cl)c(Cl)c1 |  | > 100 | > 100 | 36.7 | 33.5 | 40.5 | > 100 | 35.7 | > 100 |  | > 100 | 78.7 | > 100 | 19.9 | 81.3 | 23.8 | > 100 |  | 
25 | COc1ccccc1-n1c(NN)nc2ccc(Br)cc2c1=O | > 100 | > 100 | > 100 | 53.1 | > 100 | > 100 | 99.3 | > 100 | > 100 | > 100 | > 100 | > 100 | 72.1 | > 100 | > 100 | > 100 | > 100 |  | 
26 | CCOC(=O)c1nc2ccc(C(F)(F)F)cc2nc1Nc1ccc(F)cc1 | > 100 |  | > 100 | > 100 | > 100 | > 100 | > 100 | > 100 | > 100 |  |  | > 100 | > 100 | > 100 | > 100 |  | > 100 | > 100 | 
27 | CCOC(=O)c1nc2ccccc2nc1Oc1ccc(C#N)cc1 | > 100 | > 100 | > 100 | > 100 | > 100 | > 100 | > 100 | > 100 | > 100 | > 100 |  |  | > 100 | > 100 | > 100 | > 100 | > 100 | > 100 | 
28 | Cc1ccc(NC(=O)CSc2nnc(Cc3ccccc3)o2)cc1 | > 100 | > 100 | > 100 |  | > 100 | > 100 | > 100 | > 100 | > 100 | > 100 | > 100 | > 100 | > 100 | > 100 | > 100 | > 100 | > 100 |  | 
29 | C[C@@H]1O[C@]2(O)[C@@H]3CCCN3S(=O)(=O)CCN2C1=O | > 100 | > 100 | > 100 | > 100 | > 100 | > 100 | > 100 | > 100 |  | > 100 | > 100 | > 100 | > 100 | > 100 | > 100 | > 100 | > 100 |  | 
